We go through 3 molecules from patent US20110130388A1, “PROPHYLACTIC OR THERAPEUTIC AGENT FOR AXIAL MYOPIA” (priority 2008, published 2011).

One assay concerns axial length extension. Particulars: animal experiments; cited from earlier work.
The subject of the next assay is progress of myopia. Particulars: reported in Taiwan; cited from earlier work.
For assay [1], the system named is chicken model of form-deprivation myopia. Description: Axial length suppression test with chicken model of form-deprivation myopia (I), intravitreal injection. As to conditions: hydroxyfasudil 20 μL intravitreally once a week (about 1 μM in the eye), four weeks after induction of myopia, N = 7, * P < 0.05 vs control. It counts as in vivo, chicks (white leghorn). From the text:
Chicks (white leghorn) 6 days of age were obtained, and one eye of each chick was covered with a mask hand-made of vinyl tape. The right eye of every chick was covered, and the left eye was used as a control. The chicks were kept under usual breeding conditions.
As a Rho kinase inhibitor, Y27632 dihydrochloride (made by Wako Pure Chemical Industries; see the above formula (I); hereinafter, abbreviated to “Y27632”) and hydroxyfasudil hydrochloride (made by SIGMA; see the above formula (III); hereinafter, abbreviated to “hydroxyfasudil”) were used. Y27632 was prepared at 50 μM in saline. Hydroxyfasudil was prepared at 1 mM in saline. To the control, saline was administered.
Into the vitreous chambers of the chicks to which myopia was being induced by the mask, Y27632 or hydroxyfasudil was injected once a week (every 7 days). Specifically, to the chicks under anesthesia with Ketalar (registered trademark) and Selactar (registered trademark), injection to a site about 2 mm off the corneal ring was performed with use of a syringe for insulin injection.
To the Y27632 treatment group, 50 μL of the 50 μM Y27632 solution was intravitreally injected. Since the chick eyeball volume is about 1 mL, the final concentration of Y27632 in the eye was about 2.5 μM. To a control group not treated with Y27632, 50 μL of saline was intravitreally injected.
To the hydroxyfasudil treatment group, 20 μL of a diluted hydroxyfasudil solution prepared by diluting 1 μL of the 1 mM hydroxyfasudil solution to 20 μL was intravitreally injected. Since the chick eyeball volume is about 1 mL, the final concentration of hydroxyfasudil in the eye was about 1 μM. To a control group not treated with hydroxyfasudil, 20 μL of saline was intravitreally injected.
Four weeks after the induction of myopia, the chicks were sacrificed. The eyeballs were enucleated and the right eyeball and the left eyeball were measured for the size with a caliper. The degree of axial myopia was evaluated based on the axial length and the greatest transverse diameter. The differences of the axial length and the greatest transverse diameter between the right eye and the left eye were calculated to indicate the degree of myopia. Between the groups treated with the above-mentioned drugs and the respective control groups, the degree of myopia induction was compared.

For assay [2] the test system is unchanged. Nature of the assay: Axial length suppression test with chicken model of form-deprivation myopia (II), ophthalmic instillation. It counts as in vivo, chicks (white leghorn). Particulars: hydroxyfasudil 500 nmol/1000 μL, 1 drop (about 5 μl) instilled once daily for 4 weeks, N = 10, * P < 0.05, t-test vs control. From the text:
Chicken models of form-deprivation myopia were made in the same manner as in Example 1. That is, chicks (white leghorn) 6 days of age were obtained, and one eye of each chick was covered with a mask hand-made of vinyl tape. The right eye of every chick was covered, and the left eye was used as a control. The chicks were kept under usual breeding conditions.
As a Rho kinase inhibitor, hydroxyfasudil hydrochloride (made by SIGMA; see the above formula (III); hereinafter, abbreviated to “hydroxyfasudil”) was used. Hydroxyfasudil was dissolved in BSS Plus (registered trademark, made by Alcon) so that the concentration was 10 mM, and 50 μL of this solution was diluted with saline to 1000 μL. A hydroxyfasudil solution at a concentration of 500 nmol/1000 μL was thus prepared.
To chicks to which myopia was being induced by the mask, hydroxyfasudil was instilled once daily for 4 weeks. Specifically, 1 drop (about 5 μl) of the above-mentioned hydroxyfasudil solution was instilled with use of a syringe with needle for insulin subcutaneous administration, “Low Dose” 30 G (made by Becton, Dickinson and Company). The instillation was performed to the right eye and the left eye.
To the control, BSS Plus was intravitreally injected once a week (every 7 days). Specifically, the intravitreal injection was performed to a superotemporal site about 3 mm off the corneal ring avoiding cartilage tissue of the lens and sclera with use of the above-mentioned “Low Dose”. The injection to the right eye and the left eye was performed 4 times in total.
Four weeks after the induction of myopia, the chicks were sacrificed. The eyeballs were enucleated and the right eyeballs and the left eyeballs were measured for the size with a caliper. The degree of axial myopia was evaluated based on the axial length and the greatest transverse diameter. The differences of the axial length and the greatest transverse diameter between the right eye and the left eye were calculated to indicate the degree of myopia. Between the group treated with hydroxyfasudil and the control group, the degree of myopia induction was compared.

In a further assay the test system is myopia. As to conditions: 2-year clinical trial, children aged 8 to 12; cited from earlier work.
For a further assay, the system named is form-deprivation myopia. Particulars: animal experiment level; cited from earlier work.

The structures appear in SMILES notation.

In the case of `CN1[C@@H]2CC[C@H]1C[C@@H](OC(=O)C(CO)c1ccccc1)C2` (stereo partly shown) [Atropine], the Axial length extension result in the assay on axial length extension is recorded as “suppresses axial length extension”. In addition, the Progress of myopia result in the assay on progress of myopia was “statistically significant inhibition of the progress of myopia”.

For the molecule `O=S(=O)(c1cccc2c(O)nccc12)N1CCCNCC1` [Hydroxyfasudil, 1-(1-hydroxy-5-isoquinolinesulfonyl)homopiperazine], the “Axial length, average right-left difference” value in assay [1] is 0.37* mm; in assay [1] (listed as hydroxyfasudil), “significantly reduced”; in assay [2] it was 0.61* mm; in assay [2] (listed as hydroxyfasudil), “significantly reduced”. For the same molecule, the “Greatest transverse diameter, average right-left difference” value in assay [1] is 0.48* mm; in assay [1] (listed as hydroxyfasudil) it was “significantly reduced”; in assay [2] it was 0.91* mm; in assay [2] (listed as hydroxyfasudil) it was “significantly reduced”.

Consider `CN1CCN(CC(=O)N2c3ccccc3C(=O)Nc3cccnc32)CC1` [Pirenzepine], for which, in the assay on myopia, the “Accommodative myopia (refraction of the lens)” value is “significant difference” and the Axial length result is reported as “no significant difference”. The “Form-deprivation myopia (axial length extension)” value in the assay with form-deprivation myopia is on record as “prevented form-deprivation myopia”.
